In patent publication US5688992A, “O-malonyltryrosyl compounds, O-malonyltryrosyl compound-containing peptides, and use thereof” (The United States of America as represented by the …, priority 1995, dated 1997):
Read-outs that look alike come from different tables or passages of the source. Square brackets hold non-standard residues; d marks the D form. Peptide text beside a SMILES is read from it. * marks the point of attachment. F2Pmp = N[C@@H](Cc1ccc(C(F)(F)P(=O)(O)O)cc1)C(=O)O; pY = N[C@@H](Cc1ccc(OP(=O)(O)O)cc1)C(=O)O; L‑OMT = L-O-malonyltyrosine; X1 = O=C(O)C(C(=O)O)*

Assays:
[1] = biological target: T1, N-terminal SH-PTP2 SH2 domain (Homo sapiens, UniProt Q06124); conditions: X = pTyr or L-F2Pmp; previously reported (Xiao 1994); cited from earlier work
T1 sequence (Q06124 6-102 limits assumed): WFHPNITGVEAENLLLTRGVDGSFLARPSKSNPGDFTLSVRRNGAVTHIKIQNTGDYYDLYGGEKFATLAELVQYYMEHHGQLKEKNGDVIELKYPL

[2] = tested on: SH-PTP2 mediated mitogenic signaling in rat 1 fibroblasts; conditions: Xiao 1994; cited from earlier work
recombinant PTP 1B = biological target: T2, recombinant PTP 1B (Homo sapiens, UniProt P18031); experiment: Insulin receptor dephosphorylation by recombinant PTP 1B; type: biochemical; conditions: 32P-labeled autophosphorylated insulin receptor as substrate; read-out: inhibition constant / IC50 against PTP 1B dephosphorylation of insulin receptor
T2 sequence (P18031 1-435): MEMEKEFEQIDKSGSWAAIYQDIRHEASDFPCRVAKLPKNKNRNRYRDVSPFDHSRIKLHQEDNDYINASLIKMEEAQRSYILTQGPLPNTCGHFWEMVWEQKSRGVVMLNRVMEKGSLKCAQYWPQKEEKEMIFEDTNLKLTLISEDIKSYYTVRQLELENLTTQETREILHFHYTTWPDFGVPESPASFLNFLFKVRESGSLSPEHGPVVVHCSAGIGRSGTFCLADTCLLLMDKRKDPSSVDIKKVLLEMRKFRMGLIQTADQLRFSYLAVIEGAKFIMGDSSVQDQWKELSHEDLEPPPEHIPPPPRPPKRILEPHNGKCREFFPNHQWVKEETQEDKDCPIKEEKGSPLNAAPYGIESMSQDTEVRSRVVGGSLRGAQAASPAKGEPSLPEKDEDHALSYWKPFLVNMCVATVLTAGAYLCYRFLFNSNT
Experimental: WGA-purified human insulin receptors were autophosphorylated with [γ-^32 P]ATP as previously described (Liotta, A.S., et al., J. Biol. Chem. 269:22996-23001 (1994)), and this ^32 P-labeled insulin receptor was used as substrate for the assay of PTP 1B activity, essentially following the method described by Burke et al. (Burke, T. R. Jr., Biochem, Biophys. Res. Commun. 204:129-134 (1994)). In brief, ^32 P-labeled autophosphorylated insulin receptors (10 μg/ml) were incubated with 0.5 μg/ml recombinant PTP 1B at 22° C. in a 100 μl reaction containing 50 mM HEPES, pH 7.5, 0.1 mg/ml BSA, 5 mM DTT, 5 mM EDTA, 0.05% Triton X-100, in the absence or presence of various peptides at the indicated concentrations. […] The ^32 P remaining in the 95 kDa insulin receptor β-subunit was quantified by Betagen counting of the fixed and dried gels.
The peptide Ac-D-A-D-E-OMT-L-amide (SEQ. ID. NO. 8) was then examined for inhibitor potency against PTB-1B dephosphorylation of phosphorylated insulin receptor. […] The ^32 P remaining in the 95 kDa insulin receptor β-subunit was quantified by Betagen counting of the fixed and dried gels. […]

[3] = biological target: C-terminal SH2 domain of PI 3-kinase p85 (Homo sapiens, UniProt P27986); experiment: SH2 domain competition binding assay, PI 3-kinase p85 C-terminal SH2; conditions: X = L-OMT; GST/SH2 fusion vs [125I] IRS-1 pY628 phosphopeptide; read-out: IC50 ± S.E., p85 (C-terminal) SH2 domain
Experimental: (§1) Details of the […] domain competition assay are described by Piccione, E., et al., Biochemistry 32:3197-3202 (1993). Briefly, four distinct assays were used to determine relative SH2 domain affinities for pTyr analogues vs. high affinity phosphopeptide ligands. In each assay a glutathione S-transferase (GST)/SH2 domain fusion protein was paired with an appropriate high-affinity [^125 I]Bolton-Hunter radiolabeled phosphopeptide, and varying concentrations of unlabeled peptides were added as competitors. The C-terminal SH2 domain of PI 3-kinase p85 was paired with IRS-1pY628, GNGDpYMPMSPK (SEQ ID NO. 5) (See Piccione, E., et al., Biochemistry 32:3197-3202 (1993)), the Src SH2 domain was paired with hmt pY324, KEPQpYEEIPIYL (SEQ ID NO. 6) (See Payne, G., et al., Proc. Natl. Acad. Sci. USA 90:4902-4906 (1993), the PLCγ-C SH2 domain was paired with PDGF pY1021, DNDpYIIPLPDPK (SEQ ID NO. 7) (See Piccione, E., et al., Biochemistry 32:3197-3202 (1993)), and the Lck SH2 domain was paired with the hmTpY324 sequence similar to assays conducted on the Src SH2 domain. An underline denotes the position of the [^125 I]Bolton-Hunter modified lysine. […] Following centrifugation for 5 min at 12,000 g, supematant solutions were removed by aspiration and [^125 I]radioactivity associated with the unwashed pellets was determined with a γ-counter.

Src SH2 domain = biological target: T3, Src SH2 domain (Homo sapiens, UniProt P12931); experiment: SH2 domain competition binding assay, Src SH2; conditions: X = L-OMT; GST/SH2 fusion vs [125I] hmT pY324 phosphopeptide; read-out: IC50 ± S.E., Src SH2 domain
T3 construct: the Src SH2 domain was paired with hmt pY324
Experimental: as §1

Grb2 SH2 domain = biological target: T4, Grb2 SH2 domain (Homo sapiens, UniProt P62993); experiment: SH2 domain competition binding assay, Grb2 SH2
T4 construct: against the Grb2 SH2 domain construct

[4] = biological target: T1, N-terminal SH-PTP2 SH2 domain; experiment: SH2 domain competition binding assay, SH-PTP2 N-terminal SH2; conditions: X = L-OMT; read-out: IC50 ± S.E., SH-PTP2 (N-terminal) SH2 domain

10 (X = L-F2Pmp): Ac-L-N-X-I-D-L-D-L-V-amide with X = L-F2Pmp in place of L-OMT (Ac-LN[F2Pmp]IDLDLV-NH2; SMILES CC[C@H](C)[C@H](NC(=O)[C@H](Cc1ccc(C(F)(F)P(=O)(O)O)cc1)NC(=O)[C@H](CC(N)=O)NC(=O)[C@H](CC(C)C)NC(C)=O)C(=O)N[C@@H](CC(=O)O)C(=O)N[C@@H](CC(C)C)C(=O)N[C@@H](CC(=O)O)C(=O)N[C@@H](CC(C)C)C(=O)N[C@H](C(N)=O)C(C)C)
IC50 [1]: 23 µM | effect on SH-PTP2 mediated mitogenic signaling [2]: block SH-PTP2 mediated mitogenic signaling

10 (X = pTyr): Ac-L-N-X-I-D-L-D-L-V-amide with X = pTyr in place of L-OMT (Ac-LN[pY]IDLDLV-NH2; SMILES CC[C@H](C)[C@H](NC(=O)[C@H](Cc1ccc(OP(=O)(O)O)cc1)NC(=O)[C@H](CC(N)=O)NC(=O)[C@H](CC(C)C)NC(C)=O)C(=O)N[C@@H](CC(=O)O)C(=O)N[C@@H](CC(C)C)C(=O)N[C@@H](CC(=O)O)C(=O)N[C@@H](CC(C)C)C(=O)N[C@H](C(N)=O)C(C)C)
IC50 [1]: 4 µM

CC(=O)N[C@@H](CC(=O)O)C(=O)N[C@@H](C)C(=O)N[C@@H](CC(=O)O)C(=O)N[C@@H](CCC(=O)O)C(=O)N[C@@H](Cc1ccc(OC(C(=O)O)C(=O)O)cc1)C(=O)N[C@@H](CC(C)C)C(N)=O [Ac-D-A-D-E-OMT-L-amide, Ac-Asp-Ala-Asp-Glu-[L-OMT]-Leu-amide] (Ac-DADEY(X1)L-NH2)
IC50 (recombinant PTP 1B): ~10 µM

CSCC[C@H](NC(=O)[C@@H]1CCCN1C(=O)[C@@H](NC(=O)[C@H](Cc1ccc(OC(C(=O)O)C(=O)O)cc1)NC(=O)[C@H](CC(=O)O)NC(C)=O)C(C)C)C(=O)N[C@@H](CC(C)C)C(N)=O [peptide no. 6, Ac-Asp-[L-OMT]-Val-Pro-Met-Leu-amide] (Ac-DY(X1)VPML-NH2)
IC50 [3]: 14.2 µM

CC[C@H](C)[C@H](NC(=O)[C@H](CCC(=O)O)NC(=O)[C@H](CCC(=O)O)NC(=O)[C@H](Cc1ccc(OC(C(=O)O)C(=O)O)cc1)NC(=O)[C@H](CCC(N)=O)NC(C)=O)C(=O)N1CCC[C@H]1C(N)=O [peptide no. 7, Ac-Gln-[L-OMT]-Glu-Glu-Ile-Pro-amide] (Ac-QY(X1)EEIP-NH2)
IC50 (Src SH2 domain): > 200 µM

CC[C@H](C)[C@H](NC(=O)[C@H](CC(N)=O)NC(=O)[C@@H](NC(=O)[C@H](Cc1ccc(OC(C(=O)O)C(=O)O)cc1)NC(=O)[C@H](CC(N)=O)NC(C)=O)C(C)C)C(=O)N[C@@H](CCC(=O)O)C(N)=O [peptide no. 8, Ac-Asn-[L-OMT]-Val-Asn-Ile-Glu-amide] (Ac-NY(X1)VNIE-NH2)
activity in Grb2 binding assay (Grb2 SH2 domain): essentially inactive

Ac-Leu-Asn-[L-OMT]-Ile-Asp-Leu-Asp-Leu-Val-amide ({Ac-Leu-Asn-L‑OMT}-IDLDLV-NH2) [peptide no. 9]
IC50 [4]: 22 µM
